Values quoted from earlier work in US5258185A (priority 1989, dated 1993).

Assays:
[1] = not given; remark: listed apart in the source
[2] = e.g. incorporation in melts of high molecular polyethylene glycols
[3] = extremely fine crystallizates, surface size 3 to 10 m^2 (DE-OS 23 48 334)

**Q.** With `COc1ccc(Cl)cc1C(=O)NCCc1ccc(S(=O)(=O)NC(=O)NC2CCCCC2)cc1` [Glibenclamide, N-4-(5-chloro-[2-methoxy-benzamido)ethyl]phenylisulfonyl-N'-cyclohexyl urea] as the compound, how does the “water solubility depending on pH” value (acidic range) read?
**A.** Its value is “virtually water-insoluble”.

**Q.** And the solubility in alcohol (alcohol)?
**A.** The solubility in alcohol was “only moderately soluble”.

**Q.** What about the solubility in chloroform (chloroform) of the same compound?
**A.** The solubility in chloroform was “only moderately soluble”.

**Q.** What about the solubility in ether (ether) of the same compound?
**A.** The solubility in ether was “virtually insoluble”.

**Q.** And the “solubility and dissolution rate with increase in surface” value [3]?
**A.** Its value is “increase in solubility and dissolution rate”.

**Q.** And the solubility in water (water)?
**A.** Its solubility in water is “virtually insoluble”.

**Q.** And the “bioavailability with increase in surface” value [1, 3]?
**A.** The value was “improving the bioavailability”.

**Q.** What about the “drug release and bioavailability of micronized glibenclamide” value ([1]; micronized, mean particle size ±5 μm, above all in the presence of tensides) of the same compound?
**A.** The value was “improved drug release and bioavailability”.

**Q.** What about the “effect of processing at elevated temperatures on stability” value [2] of the same compound?
**A.** Its value is “detrimental to stability”.
